# PubChem BioAssay (NCI)
#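 1) Cells in 96-well plates. 2) Compound, 48 h, 5 concentrations. 3) Linear interpolation between surrounding doses. 4) Unreached endpoint = highest concentration. The concentration for 50% growth inhibition is given as GI50. TGI: total growth inhibition.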
# Tests used:
# Test in all cases: NCI-60 cell line screen, 48 h
# SF-268 CNS = tested on: SF-268 CNS
# U251 CNS = tested on: U251 CNS
# A498 renal = tested on: A498 renal
# SF-295 CNS = tested on: SF-295 CNS
# OVCAR-5 ovarian = tested on: OVCAR-5 ovarian
# TK-10 renal = tested on: TK-10 renal
# MDA-MB-231 breast = tested on: MDA-MB-231 breast
# T-47D breast = tested on: T-47D breast
# MALME-3M melanoma = tested on: MALME-3M melanoma
# 786-0 renal = tested on: 786-0 renal
# LOX IMVI melanoma = tested on: LOX IMVI melanoma
# MCF7 breast = tested on: MCF7 breast
# BT-549 breast = tested on: BT-549 breast
# SK-OV-3 ovarian = tested on: SK-OV-3 ovarian
# HCT-116 colon = tested on: HCT-116 colon
# HT29 colon = tested on: HT29 colon
# NCI-H522 lung = tested on: NCI-H522 lung
# UACC-62 melanoma = tested on: UACC-62 melanoma
# SNB-19 CNS = tested on: SNB-19 CNS
# IGROV1 ovarian = tested on: IGROV1 ovarian
# PC-3 prostate = tested on: PC-3 prostate
# OVCAR-4 ovarian = tested on: OVCAR-4 ovarian
# SW-620 colon = tested on: SW-620 colon
# UO-31 renal = tested on: UO-31 renal
# CAKI-1 renal = tested on: CAKI-1 renal
# EKVX NSCLC = tested on: EKVX NSCLC
# SK-MEL-5 melanoma = tested on: SK-MEL-5 melanoma
# ACHN renal = tested on: ACHN renal
# MOLT-4 leukemia = tested on: MOLT-4 leukemia
# MDA-N = tested on: MDA-N
# RPMI-8226 leukemia = tested on: RPMI-8226 leukemia
# DU-145 prostate = tested on: DU-145 prostate
# SK-MEL-2 melanoma = tested on: SK-MEL-2 melanoma
# COLO 205 colon = tested on: COLO 205 colon
# OVCAR-3 ovarian = tested on: OVCAR-3 ovarian
# HOP-92 NSCLC = tested on: HOP-92 NSCLC
# SF-539 CNS = tested on: SF-539 CNS
# NCI-H460 lung = tested on: NCI-H460 lung
# A549 NSCLC = tested on: A549 NSCLC
# HCT-15 colon = tested on: HCT-15 colon
# SNB-75 CNS = tested on: SNB-75 CNS
# M14 melanoma = tested on: M14 melanoma
# HOP-62 NSCLC = tested on: HOP-62 NSCLC
# SR leukemia = tested on: SR leukemia
# NCI-H226 lung = tested on: NCI-H226 lung
# NCI/ADR-RES ovarian = tested on: NCI/ADR-RES ovarian
# SK-MEL-28 melanoma = tested on: SK-MEL-28 melanoma
# KM12 colon = tested on: KM12 colon
# UACC-257 melanoma = tested on: UACC-257 melanoma
# RXF 393 renal = tested on: RXF 393 renal
# MDA-MB-435 = tested on: MDA-MB-435
# K-562 leukemia = tested on: K-562 leukemia
# HS 578T breast = tested on: HS 578T breast
# CCRF-CEM leukemia = tested on: CCRF-CEM leukemia
# NCI-H23 lung = tested on: NCI-H23 lung
# HL-60(TB) leukemia = tested on: HL-60(TB) leukemia
# HCC-2998 colon = tested on: HCC-2998 colon
# SN12C renal = tested on: SN12C renal
# OVCAR-8 ovarian = tested on: OVCAR-8 ovarian
# SNB-78 CNS = tested on: SNB-78 CNS
# LXFL 529 NSCLC = tested on: LXFL 529 NSCLC
# M19-MEL melanoma = tested on: M19-MEL melanoma
# KM20L2 colon = tested on: KM20L2 colon
# DLD-1 colon = tested on: DLD-1 colon
smiles,measurement,setting,value
CNC(=O)OCc1c(COC(=O)NC)c(-c2ccc(Cl)c(Cl)c2)n2c1SCC2,TGI,SF-268 CNS,32.9 µM
same,TGI,U251 CNS,22.2 µM
same,TGI,A498 renal,2.07 µM
same,TGI,SF-295 CNS,35.7 µM
same,TGI,OVCAR-5 ovarian,10.8 µM
same,TGI,TK-10 renal,19.1 µM
same,TGI,MDA-MB-231 breast,34.4 µM
same,TGI,T-47D breast,57.2 µM
same,TGI,MALME-3M melanoma,37.8 µM
same,TGI,786-0 renal,> 46.8 µM
same,TGI,LOX IMVI melanoma,25.5 µM
same,TGI,MCF7 breast,27.2 µM
same,GI50,BT-549 breast,6.23 µM
same,TGI,BT-549 breast,22.4 µM
same,TGI,SK-OV-3 ovarian,28.1 µM
same,TGI,HCT-116 colon,26 µM
same,TGI,HT29 colon,37.5 µM
same,TGI,NCI-H522 lung,21.5 µM
same,TGI,UACC-62 melanoma,8.94 µM
same,TGI,SNB-19 CNS,> 84.9 µM
same,GI50,IGROV1 ovarian,3.16 µM
same,TGI,IGROV1 ovarian,26.9 µM
same,TGI,PC-3 prostate,55.1 µM
same,GI50,OVCAR-4 ovarian,3.59 µM
same,TGI,OVCAR-4 ovarian,25.5 µM
same,TGI,SW-620 colon,26.3 µM
same,TGI,UO-31 renal,25.5 µM
same,TGI,CAKI-1 renal,23.9 µM
same,TGI,EKVX NSCLC,72 µM
same,TGI,SK-MEL-5 melanoma,25.1 µM
same,TGI,ACHN renal,17.6 µM
same,TGI,MOLT-4 leukemia,47.3 µM
same,TGI,MDA-N,42.7 µM
same,TGI,RPMI-8226 leukemia,39.7 µM
same,TGI,DU-145 prostate,39.5 µM
same,TGI,SK-MEL-2 melanoma,26.7 µM
same,TGI,COLO 205 colon,26.7 µM
same,TGI,OVCAR-3 ovarian,25.2 µM
same,TGI,HOP-92 NSCLC,17.6 µM
same,TGI,SF-539 CNS,26.9 µM
same,TGI,NCI-H460 lung,19.9 µM
same,TGI,A549 NSCLC,> 88 µM
same,TGI,HCT-15 colon,28.1 µM
same,TGI,SNB-75 CNS,25.1 µM
same,TGI,M14 melanoma,37.9 µM
same,TGI,HOP-62 NSCLC,50.7 µM
same,TGI,SR leukemia,39 µM
same,TGI,NCI-H226 lung,2.67 µM
same,TGI,NCI/ADR-RES ovarian,40 µM
same,TGI,SK-MEL-28 melanoma,37.3 µM
same,TGI,KM12 colon,36.8 µM
same,TGI,UACC-257 melanoma,31.7 µM
same,TGI,RXF 393 renal,13.8 µM
same,TGI,MDA-MB-435,33.3 µM
same,TGI,K-562 leukemia,52 µM
same,TGI,HS 578T breast,51 µM
same,TGI,CCRF-CEM leukemia,64.9 µM
same,TGI,NCI-H23 lung,40.5 µM
same,TGI,HL-60(TB) leukemia,25.4 µM
same,TGI,HCC-2998 colon,30 µM
same,TGI,SN12C renal,34 µM
same,TGI,OVCAR-8 ovarian,39.8 µM
CC1=C(C(=O)Nc2ccc([N+](=O)[O-])cc2)C(c2ccc(N(C)C)cc2)C(C(=O)Nc2ccc([N+](=O)[O-])cc2)=C(C)N1,TGI,SF-268 CNS,96.1 µM
same,TGI,U251 CNS,66.5 µM
same,TGI,A498 renal,81.8 µM
same,TGI,SF-295 CNS,74.6 µM
same,TGI,OVCAR-5 ovarian,67 µM
same,TGI,TK-10 renal,92.2 µM
same,TGI,SNB-78 CNS,> 100 µM
same,TGI,MALME-3M melanoma,52.6 µM
same,TGI,786-0 renal,57.6 µM
same,TGI,LOX IMVI melanoma,23.5 µM
same,TGI,SK-OV-3 ovarian,80 µM
same,TGI,HT29 colon,46.9 µM
same,TGI,NCI-H522 lung,25.6 µM
same,TGI,SNB-19 CNS,> 100 µM
same,TGI,IGROV1 ovarian,61.9 µM
same,TGI,OVCAR-4 ovarian,89.5 µM
same,TGI,SW-620 colon,69.8 µM
same,TGI,UO-31 renal,> 100 µM
same,TGI,CAKI-1 renal,89.5 µM
same,TGI,EKVX NSCLC,90.4 µM
same,TGI,LXFL 529 NSCLC,71.4 µM
same,TGI,SK-MEL-5 melanoma,32.1 µM
same,TGI,ACHN renal,43.6 µM
same,TGI,MOLT-4 leukemia,42.3 µM
same,TGI,M19-MEL melanoma,33.2 µM
same,TGI,RPMI-8226 leukemia,43.2 µM
same,TGI,SK-MEL-2 melanoma,29.8 µM
same,TGI,COLO 205 colon,33.7 µM
same,TGI,OVCAR-3 ovarian,34.5 µM
same,TGI,HOP-92 NSCLC,47.7 µM
same,TGI,SF-539 CNS,50.5 µM
same,TGI,NCI-H460 lung,45.3 µM
same,TGI,A549 NSCLC,> 100 µM
same,TGI,KM20L2 colon,43.4 µM
same,TGI,SNB-75 CNS,59.6 µM
same,TGI,M14 melanoma,40.9 µM
same,TGI,HOP-62 NSCLC,27.5 µM
same,TGI,NCI-H226 lung,42.3 µM
same,TGI,SK-MEL-28 melanoma,28.2 µM
same,TGI,KM12 colon,37 µM
same,TGI,UACC-257 melanoma,35.6 µM
same,TGI,RXF 393 renal,30.9 µM
same,TGI,K-562 leukemia,37.6 µM
same,TGI,CCRF-CEM leukemia,60.7 µM
same,TGI,NCI-H23 lung,52.8 µM
same,TGI,DLD-1 colon,30 µM
same,TGI,HL-60(TB) leukemia,38.7 µM
same,TGI,HCC-2998 colon,25.8 µM
same,TGI,OVCAR-8 ovarian,97.9 µM
